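Exposure lasted 48 hours, with cells grown in 96-well plates and compounds tested at five concentrations. GI50: concentration for 50% inhibition of growth. TGI: concentration producing complete growth inhibition.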
Assays:
Test in all cases: inhibition of tumour cell growth, NCI panel, 48 h; in the data active means GI50 below about 0.43 µM; inactive means the rest
OVCAR-4 ovarian = test system: OVCAR-4 ovarian
SNB-75 CNS = test system: SNB-75 CNS
HOP-62 NSCLC = test system: HOP-62 NSCLC
NCI/ADR-RES ovarian = test system: NCI/ADR-RES ovarian
SN12C renal = test system: SN12C renal
NCI-H23 lung = test system: NCI-H23 lung
ACHN renal = test system: ACHN renal
UACC-257 melanoma = test system: UACC-257 melanoma
T-47D breast = test system: T-47D breast
DU-145 prostate = test system: DU-145 prostate
NCI-H522 lung = test system: NCI-H522 lung
MDA-MB-435 = test system: MDA-MB-435
COLO 205 colon = test system: COLO 205 colon
TK-10 renal = test system: TK-10 renal
UACC-62 melanoma = test system: UACC-62 melanoma
SK-MEL-28 melanoma = test system: SK-MEL-28 melanoma
SK-MEL-2 melanoma = test system: SK-MEL-2 melanoma
SK-OV-3 ovarian = test system: SK-OV-3 ovarian
K-562 leukemia = test system: K-562 leukemia
OVCAR-5 ovarian = test system: OVCAR-5 ovarian
A549 NSCLC = test system: A549 NSCLC
SF-539 CNS = test system: SF-539 CNS
NCI-H460 lung = test system: NCI-H460 lung
SR leukemia = test system: SR leukemia
MOLT-4 leukemia = test system: MOLT-4 leukemia
CCRF-CEM leukemia = test system: CCRF-CEM leukemia
HCC-2998 colon = test system: HCC-2998 colon
CAKI-1 renal = test system: CAKI-1 renal
SNB-19 CNS = test system: SNB-19 CNS
SF-295 CNS = test system: SF-295 CNS
MCF7 breast = test system: MCF7 breast
HOP-92 NSCLC = test system: HOP-92 NSCLC
HL-60(TB) leukemia = test system: HL-60(TB) leukemia
SK-MEL-5 melanoma = test system: SK-MEL-5 melanoma
HT29 colon = test system: HT29 colon
BT-549 breast = test system: BT-549 breast
RXF 393 renal = test system: RXF 393 renal
SW-620 colon = test system: SW-620 colon
RPMI-8226 leukemia = test system: RPMI-8226 leukemia
A498 renal = test system: A498 renal
OVCAR-8 ovarian = test system: OVCAR-8 ovarian
KM12 colon = test system: KM12 colon
SF-268 CNS = test system: SF-268 CNS
786-0 renal = test system: 786-0 renal
MDA-MB-231 breast = test system: MDA-MB-231 breast
U251 CNS = test system: U251 CNS
UO-31 renal = test system: UO-31 renal
HS 578T breast = test system: HS 578T breast
M14 melanoma = test system: M14 melanoma
PC-3 prostate = test system: PC-3 prostate
LOX IMVI melanoma = test system: LOX IMVI melanoma
IGROV1 ovarian = test system: IGROV1 ovarian
HCT-15 colon = test system: HCT-15 colon
HCT-116 colon = test system: HCT-116 colon
NCI-H226 lung = test system: NCI-H226 lung
EKVX NSCLC = test system: EKVX NSCLC

COc1ccc(Cn2cc3c(c2-c2cc(OC)c(OC)c(OC)c2)CCCc2cnoc2-3)cc1N
> 37.2 µM: TGI (SK-MEL-5 melanoma)
inactive: GI50 (OVCAR-4 ovarian) 5.13 µM | GI50 (HOP-62 NSCLC) 0.814 µM | GI50 (NCI/ADR-RES ovarian) 0.699 µM | GI50 (SN12C renal) 1.75 µM | GI50 (NCI-H23 lung) 1.75 µM | GI50 (ACHN renal) 0.669 µM | GI50 (UACC-257 melanoma) 0.578 µM | GI50 (T-47D breast) 0.59 µM | GI50 (DU-145 prostate) 1.45 µM | GI50 (COLO 205 colon) 0.532 µM | GI50 (TK-10 renal) 98.3 µM | GI50 (UACC-62 melanoma) 0.489 µM | GI50 (SK-MEL-28 melanoma) 3.05 µM | GI50 (SK-MEL-2 melanoma) 0.651 µM | GI50 (SK-OV-3 ovarian) 0.957 µM | GI50 (OVCAR-5 ovarian) 1.84 µM | GI50 (A549 NSCLC) 1.45 µM | GI50 (MOLT-4 leukemia) 1.11 µM | GI50 (CCRF-CEM leukemia) 0.43 µM | GI50 (HCC-2998 colon) 1.67 µM | GI50 (CAKI-1 renal) 0.491 µM | GI50 (SNB-19 CNS) 0.734 µM | GI50 (SF-295 CNS) 0.468 µM | GI50 (HOP-92 NSCLC) 0.432 µM | GI50 (SK-MEL-5 melanoma) 1.01 µM | GI50 (HT29 colon) 0.442 µM | GI50 (BT-549 breast) 0.436 µM | GI50 (SW-620 colon) 0.449 µM | GI50 (RPMI-8226 leukemia) 0.935 µM | GI50 (OVCAR-8 ovarian) 2.14 µM | GI50 (KM12 colon) 0.632 µM | GI50 (SF-268 CNS) 1.14 µM | GI50 (786-0 renal) 0.823 µM | GI50 (MDA-MB-231 breast) 1.58 µM | GI50 (U251 CNS) 0.768 µM | GI50 (UO-31 renal) 0.761 µM | GI50 (M14 melanoma) 0.501 µM | GI50 (PC-3 prostate) 0.463 µM | GI50 (LOX IMVI melanoma) 0.643 µM | GI50 (IGROV1 ovarian) 1.04 µM | GI50 (HCT-15 colon) 0.543 µM | GI50 (NCI-H226 lung) 1.59 µM | GI50 (EKVX NSCLC) 2.43 µM
> 100 µM: TGI (OVCAR-4 ovarian) | TGI (HOP-62 NSCLC) | TGI (NCI/ADR-RES ovarian) | TGI (SN12C renal) | TGI (NCI-H23 lung) | TGI (ACHN renal) | TGI (UACC-257 melanoma) | TGI (T-47D breast) | TGI (DU-145 prostate) | TGI (TK-10 renal) | TGI (UACC-62 melanoma) | TGI (SK-MEL-2 melanoma) | TGI (SK-OV-3 ovarian) | TGI (K-562 leukemia) | TGI (OVCAR-5 ovarian) | TGI (A549 NSCLC) | TGI (NCI-H460 lung) | TGI (SR leukemia) | TGI (MOLT-4 leukemia) | TGI (CCRF-CEM leukemia) | TGI (CAKI-1 renal) | TGI (SNB-19 CNS) | TGI (SF-295 CNS) | TGI (MCF7 breast) | TGI (HT29 colon) | TGI (SW-620 colon) | TGI (OVCAR-8 ovarian) | TGI (KM12 colon) | TGI (SF-268 CNS) | TGI (786-0 renal) | TGI (MDA-MB-231 breast) | TGI (U251 CNS) | TGI (UO-31 renal) | TGI (M14 melanoma) | TGI (PC-3 prostate) | TGI (LOX IMVI melanoma) | TGI (IGROV1 ovarian) | TGI (HCT-15 colon) | TGI (HCT-116 colon) | TGI (NCI-H226 lung) | TGI (EKVX NSCLC)
1.53 µM: TGI (NCI-H522 lung)
3.7 µM: TGI (RXF 393 renal)
2.73 µM: TGI (BT-549 breast)
2.14 µM: TGI (COLO 205 colon)
active: GI50 (SNB-75 CNS) 0.384 µM | GI50 (NCI-H522 lung) 0.306 µM | GI50 (MDA-MB-435) 0.24 µM | GI50 (K-562 leukemia) 0.404 µM | GI50 (SF-539 CNS) 0.426 µM | GI50 (NCI-H460 lung) 0.41 µM | GI50 (SR leukemia) 0.405 µM | GI50 (MCF7 breast) 0.392 µM | GI50 (HL-60(TB) leukemia) 0.333 µM | GI50 (RXF 393 renal) 0.412 µM | GI50 (A498 renal) 0.407 µM | GI50 (HS 578T breast) 0.404 µM | GI50 (HCT-116 colon) 0.423 µM
6.4 µM: TGI (HS 578T breast)
> 33.4 µM: TGI (RPMI-8226 leukemia)
4.32 µM: TGI (SF-539 CNS)
4.82 µM: TGI (HOP-92 NSCLC)
> 32 µM: TGI (HCC-2998 colon)
0.633 µM: TGI (MDA-MB-435)
9.22 µM: TGI (SNB-75 CNS)
2.88 µM: TGI (A498 renal)
> 67.7 µM: TGI (SK-MEL-28 melanoma)

Source: PubChem BioAssay (NCI)
